Data on 7 compounds can be found in paper PMC7829778, “Optimization of 1,4-Naphthoquinone Hit Compound: A Computational, Phenotypic, and In Vivo Screening against Trypanosoma cruzi” (Molecules, 2021).

Data set [1] deals with T. cruzi trypomastigotes Dm28c-Luc. Briefly: Trypanocidal activity against trypomastigotes, Dm28c-Luc clone (luciferase). The format is cell-based, Trypanosoma cruzi. To be noted: 24 h, mean ± SD of three experiments; for IC50: read-out: Trypanocidal Effect Trypomastigotes Dm28c-Luc IC50; for IC90: read-out: Trypanocidal Effect Trypomastigotes Dm28c-Luc IC90. On the procedure:
(§1) T. cruzi Dm28c-Luc clone, genetically modified to express firefly luciferase, and Y strain were used in the drug screening assay. Vero cells were infected with T. cruzi, Dm28c-Luc or Y strain, in a 10:1 parasites/host cell ratio and maintained at 37 °C in humidified atmosphere of 5% CO2. Trypomastigotes were harvested from the infected culture supernatant on the 4th day post-infection (dpi) followed by quantification of the number of parasites/mL in Neubauer chamber.
(§2) Screening of the compounds was performed against trypomastigotes and intracellular amastigote forms. Trypomastigotes (1 × 10^6 parasites/well), Dm28c-Luc clone and Y strain, were incubated for 24 h at 37 °C with the 1,4 naphthoquinone derivatives and Bz (0.41–100 μM) and their viability determined by the activity of the luciferase enzyme, after addition of luciferin substrate (300 μg/mL), or CellTiter Glo. The luminescent signal was detected on the FlexStation 3 reader.

The test system of data set [2] is T. cruzi trypomastigotes Y strain. The experiment in a line: Trypanocidal activity against trypomastigotes, Y strain (CellTiter Glo). The format is cell-based. To be noted: Trypanosoma cruzi, 24 h. On the procedure: as §1, §2
A short description of data set [3]: Cytotoxicity in vitro assay (CellTiter Glo, ATP level). The format is cell-based. Particulars: African green monkey, Vero cells. Here is the method:
The cultures were maintained at 37 °C in humidified atmosphere of 5% CO2.
To evaluate the toxic effects of the 1,4-naphthoquinone derivatives on mammalian cells, Vero cells were seeded at a density of 1.5 × 10^4 cells/well in 96-well white culture plates. Twenty-four hours later, the cell cultures were incubated for 72 h at 37 °C with 1,4-naphthoquinone derivatives (series 1(a–i) and 2(a–j)) and Bz (500–1.9 µM) diluted in RPMI medium supplemented with 10% FBS. After incubation, the cell viability, measured by ATP level, was assessed by adding 20 µL/well of the CellTiter Glo (Promega Corporation, Madison, WI, EUA) solution. The luminescent signal was read on the FlexStation 3 reader (Molecular Devices, Sunnyvale, CA, USA). […] All treatments and controls were performed at low concentration (≤1%) of dimethyl sulfoxide (DMSO). At least three independent assays were performed in duplicate.

The test system of data set [4] is intracellular amastigotes of T. cruzi (Dm28c-Luc clone). The experiment in a line: Luminescent screening against intracellular amastigotes in infected Vero cells. To be noted: infected Vero cells treated for 72 h, mean ± SD of three experiments. The format is cell-based, Trypanosoma cruzi. Here is the method:
as §1
The effect of the compounds against intracellular amastigotes was screened in 72 h T. cruzi-infected Vero cells. Briefly, Vero cells seeded (1.5 × 10^4 cells/well) on 96-well white plate infected with trypomastigotes (Dm28c-Luc) at a 10:1 multiplicity of parasites/cell. After 24 h of infection, the cultures were washed with PBS and then, treated for 72 h at 37 °C with naphthoquinone derivatives and Bz (0.41–100 µM). After treatment, luciferin (300 µg/mL) was added to the culture and the viability of the parasites was assessed by reading the luminescent signal using the FlexStation 3 reader. Controls were also performed in no-toxic concentrations of DMSO (≤1%).

The next data set deals with T. cruzi Y strain. Briefly: Murine model of T. cruzi acute infection. The format is in vivo, Trypanosoma cruzi.
Data set [5] in a line: Mouse acute toxicity (NOAEL). The format is in vivo.
Protocol: Treated animals were separated into two groups: (1) 5 consecutive doses of 50 mg/kg and (2) 100 mg/kg every 1h, totaling a cumulative dose of 250 mg/kg and 500 mg/kg, respectively. Untreated and vehicle treated animals (PBS with 3% Tween-80) were used as control groups. Mice were inspected for toxic and sub-toxic symptoms according to Organization for Economic Co-operation and Development (OECD) guidelines [46].
For another data set, the system named is T. cruzi. Set-up: method as in PMID 18788881. To be noted: C3H/HeN female infected mice, cited from earlier work.
Where [6] appears, read: read-out: Trypanocidal Effect Trypomastigotes Y Strain IC50, trypomastigotes, 24 h, mean ± SD of three experiments.
Setting [7] is: read-out: Trypanocidal Effect Trypomastigotes Y Strain IC90, trypomastigotes, 24 h, mean ± SD of three experiments.
Where [8] appears, read: Table 1, mean ± SD, read-out: Vero Cells Toxicity CC50.
Setting [9] is: trypomastigotes, mean ± SD of three experiments, read-out: Trypanocidal Effect Trypomastigotes Y Strain IC50.
Where [10] appears, read: trypomastigotes, mean ± SD of three experiments, read-out: Trypanocidal Effect Trypomastigotes Y Strain IC90.

Like-named read-outs stand apart in the source and are kept apart here.

Protocol for T. cruzi Y strain: Male Swiss Webster mice (18 g) were obtained from the Institute of Science and Technology in Bio-models of the Oswaldo Cruz Foundation, Rio de Janeiro, Brazil. […] The animals received water and an ad libitum feeding regimen. Mice were intraperitoneally (i.p.) infected with bloodstream trypomastigotes of T. cruzi Y strain (10^4 parasites/animal) and parasitemia was daily evaluated from the 4th dpi. […] Daily treatment (0.1 mL i.p. dose) started at 5 days post-infection (dpi) with positive parasitemia and followed up to 10 dpi.
Parasitemia was estimated by Pizzy-Brener method [47]. Briefly, animals parasitemia were determined by microscopic quantification of fresh blood (5 µL) collected from animals’ caudal vein. Mortality was daily evaluated up to 26 days and expressed in survival rates.

Regarding `O=C(Cn1ccnc1[N+](=O)[O-])NCc1ccccc1` [Bz, benznidazole, reference compound], the IC50 turned out to be 17.5 ± 3.3 µM in data set [1] (Trypanosoma cruzi), 14.3 ± 3.2 µM in data set [2] (setting [6]) and 1.4 ± 0.4 µM in data set [4] (Trypanosoma cruzi). Also, the figures for the IC90 in data set [1] (Trypanosoma cruzi), in data set [2] (setting [7]) and in data set [4] (Trypanosoma cruzi) were > 100 µM, > 100 µM and 7.9 ± 1.2 µM, respectively. Besides, the cytotoxic concentration (CC50) at 72 h is > 500 µM in data set [3] (setting [8]) and > 500 µM in data set [3] (Table 2, read-out: CC50 Vero). For the same compound, the “parasitemia by microscopic analysis” value with T. cruzi Y strain (infected mice treated orally with Bz 100 mg/kg/day) is listed as “undetectable parasitemia”. Besides, the survival result in the data set on T. cruzi Y strain (infected mice treated orally with Bz 100 mg/kg/day, 26 days) is recorded as “survived during all period analyzed”.

In the case of `O=C1C(O)=C(C(Sc2ccc(Cl)cc2)c2cn(-c3cc(Cl)cc(Cl)c3)nn2)C(=O)c2ccccc21` (stereo not shown) [Compound 1e, 2-(((4-chlorophenyl)thio)(1-(3,5-dichlorophenyl)-1H-1,2,3-triazol-4-yl)methyl)-3-hydroxynaphthalene-1,4-dione], the melting point lay in the range of 142 to 143 °C. In data set [1] (Trypanosoma cruzi), the IC50 was ~4.5 µM and the 90% effect concentration (IC90) is 16.5 ± 2.8 µM. In data set [2] (setting [6]), the IC50 was ~4.5 µM. In data set [2] (setting [9]), the IC50 was determined as 4.7 ± 1.9 µM. Moreover, the IC90 in data set [2] (setting [10]) came to 5.5 ± 0.9 µM. For the same compound, the CC50 at 72 h in data set [3] (setting [8]) was 34.1 ± 2.9 µM. Also, in data set [3] (Table 2, read-out: CC50 Vero), the CC50 at 72 h was 34.1 ± 7.5 µM. In addition, in data set [4] (Trypanosoma cruzi, Vero, 72 h), it took 9.1 ± 0.7 µM to reach half-maximal inhibition (IC50). In data set [4] (Trypanosoma cruzi), the IC90 was found to be 27.9 ± 3.9 µM.

On to `COc1ccc(C(Sc2ccc(Cl)cc2)C2=C(O)C(=O)c3ccccc3C2=O)cc1` (stereo not shown) [Compound 1g, 2-(((4-chlorophenyl)thio)(4-methoxyphenyl)methyl)-3-hydroxynaphthalene-1,4-dione], for which the IC90 in data set [1] was 19.3 ± 3.4 µM; in data set [1] (Trypanosoma cruzi) it was ≤ 19.3 µM; in data set [2] (setting [7]), ≤ 19.3 µM; in data set [2] (setting [10]), 16.8 ± 2.5 µM; in data set [4] (Trypanosoma cruzi), 11.4 ± 2.1 µM. For the same compound, the IC50 is 8.1 ± 0.6 µM in data set [1] (Trypanosoma cruzi); 10.2 ± 0.5 µM in data set [2] (setting [9]); ≤ 6.9 µM in data set [4] (Trypanosoma cruzi, Vero, 72 h); 6.7 ± 1.8 µM in data set [4]. Further, the CC50 at 72 h came to 99.9 ± 12.5 µM in data set [3] (setting [8]) and 99.5 ± 12.5 µM in data set [3] (Table 2, read-out: CC50 Vero). Moreover, in data set [5] (intraperitoneal, cumulative dose of 500 mg/kg (5 x 100 mg/kg), n = 2), the “death in acute toxicity assessment” value is listed as “one animal died”. Besides, the “changes in mouse behavioral characteristics” value in data set [5] (oral and i.p. cumulative doses, acute toxicity assessment) is listed as “not observed”. Besides, the “toxic side effects according to the OECD guidelines” value in data set [5] (oral and i.p., five doses of 50 mg/kg 1 h apart, total cumulative dose 250 mg/kg, up to 48 h post-treatment) is “No toxic side effects”. The “parasitemia / parasitic load” value in the data set on T. cruzi Y strain (Swiss Webster male mice, 10^4 Y strain trypomastigotes, i.p. treatment 5 consecutive days from 5 dpi, C2 50 and 100 mg/kg/day, 1g 50 mg/kg/day) is “not efficient in eliminating the parasites”. For the same compound, the “prevention of mortality / survival” value in the data set on T. cruzi Y strain (Swiss Webster male mice, Y strain, i.p. treatment from 5 dpi, C2 50 and 100 mg/kg/day, 1g 50 mg/kg/day) is listed as “not able to prevent mortality”.

Take `COc1ccc(C(Sc2ccccc2C)C2=C(O)C(=O)c3ccccc3C2=O)cc1` (stereo not shown) [Compound 2b, 2-Hydroxy-3-((4-methoxyphenyl)(o-tolylthio)methyl) naphthalene-1,4-dione]: the melting point is 54 to 55 °C. In data set [1] (Trypanosoma cruzi), the IC50 was found to be 25.9 ± 2.2 µM and the IC90 was 31.8 ± 0.9 µM. The IC50 in data set [2] (setting [9]) came to 27.9 ± 4.1 µM. In data set [2] (setting [10]), the IC90 turned out to be 37.9 ± 6.1 µM. Besides, the half-maximal cytotoxic concentration (CC50) at 72 h in data set [3] (setting [8]) came out at 44.4 ± 3.4 µM. The CC50 at 72 h in data set [3] (Table 2, read-out: CC50 Vero) turned out to be 44.4 ± 3.4 µM. In data set [4] (Trypanosoma cruzi, Vero, 72 h), the IC50 was ~12 µM. In data set [4] (Trypanosoma cruzi), the IC90 worked out at 27.4 ± 2.4 µM. The compound also came in with an IC50 in data set [4] of 11.3 ± 1.1 µM.

`COc1ccc(C(Sc2ccc(F)cc2)C2=C(O)C(=O)c3ccccc3C2=O)cc1` (stereo not shown) [Compound 2e, 2-(((4-fluorophenyl)thio)(4-methoxyphenyl)methyl)-3-hydroxynaphthalene-1,4-dione]: the melting point is 132 to 134 °C. Besides, in data set [1] (Trypanosoma cruzi), the IC50 came out at 24.4 ± 4.4 µM and the IC90 was determined as 31.4 ± 4.4 µM. Moreover, in data set [2] (setting [9]), the IC50 was 20.3 ± 4.1 µM. In addition, the IC90 in data set [2] (setting [10]) stood at 32.3 ± 5.1 µM. In data set [3] (setting [8]), the CC50 at 72 h was found to be 47.7 ± 3.2 µM. Also, the CC50 at 72 h in data set [3] (Table 2, read-out: CC50 Vero) was 47.7 ± 3.2 µM. For the same compound, in data set [4] (Trypanosoma cruzi, Vero, 72 h), the IC50 is ≤ 6.9 µM. Also, in data set [4] (Trypanosoma cruzi), the 90% effect level (IC90) was put at 19.7 ± 3.2 µM. The IC50 in data set [4] is 6.8 ± 1.5 µM.

Compound `COc1ccc(C(Sc2ccc3ccccc3c2)C2=C(O)C(=O)c3ccccc3C2=O)cc1` (stereo not shown) [Compound 2h, 2-Hydroxy-3-((4-methoxyphenyl)(naphthalen-2-ylthio)methyl) naphthalene-1,4-dione] yielded a melting point of 56 to 57 °C. Also, in data set [1] (Trypanosoma cruzi), the IC50 stood at 21.7 ± 4.7 µM and the IC90 amounted to 39.7 ± 5.7 µM. The IC50 in data set [2] (setting [9]) worked out at 24.5 ± 3.6 µM. Also, in data set [2] (setting [10]), the IC90 turned out to be 34.5 ± 4.6 µM. The CC50 at 72 h in data set [3] (setting [8]) was found to be 63.4 ± 7.1 µM. Moreover, the CC50 at 72 h in data set [3] (Table 2, read-out: CC50 Vero) stood at 63.4 ± 7.1 µM. The same compound had an IC50 in data set [4] (Trypanosoma cruzi, Vero, 72 h) of 22.4 ± 2.2 µM. In addition, it took 31.5 ± 6.1 µM to reach the 90% level in data set [4] (Trypanosoma cruzi) (IC90).

`O=C1C(c2ccccc2)=C(c2ccccc2)C(=O)c2ccccc21` [DPNQ, 2,3-diphenyl-1,4-naphthoquinone]: the animal survival with T. cruzi (up to 70 dpi) was 60%. For the same compound, the parasite load result with T. cruzi is “reduced two-fold the parasite load”.
